Measurements published in US8637499B2, “Benzoxazepines as inhibitors of PI3K/mTOR and methods of their use and manufacture” (Exelixis, Inc., priority 2009, dated 2014).

Columns and labels:
[1] = target: PI3Kα (Homo sapiens, UniProt P42336); experiment: PI3K Biochemical Assays (ATP consumption, luciferase-luciferin chemiluminescence); conditions: PI3Kα 1.5 nM, ATP 1 μM, PIP2 10 μM; percent of ATP consumed
Outline: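 Kinase activity read as percent ATP consumed via luciferase-luciferin chemiluminescence. 1.5 nM enzyme, 1 μM ATP, 10 μM PIP2 in 50 mM Tris pH 7.5, 1 mM EGTA, 10 mM MgCl2, 1 mM DTT, 0.03% CHAPS; ~2 h at ambient temperature, ATP consumption kept to 40-60%.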

[2] = target: mTORC1 (mTOR/GbL/Raptor) (Homo sapiens, UniProt P42345); experiment: mTOR/GbL/Raptor (mTORC1) ELISA Assay; assay type: biochemical; conditions: 0.2 nM mTORC1, 10 μM ATP, 50 nM NHis-tagged 4E-BP1; phosphorylation of 4E-BP1; read-out: IC50
Outline: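 mTORC1 (0.2 nM) phosphorylated NHis-tagged 4E-BP1 (50 nM) with 10 μM ATP in 20 mM Hepes pH 7.2, 10 mM MnCl2, for 120 min at ambient temperature. Product was captured on Ni-chelate plates and detected with anti-phospho-4E-BP1 plus HRP secondary antibody by chemiluminescence.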

PI3Kα, sequence (P42336 whole entry): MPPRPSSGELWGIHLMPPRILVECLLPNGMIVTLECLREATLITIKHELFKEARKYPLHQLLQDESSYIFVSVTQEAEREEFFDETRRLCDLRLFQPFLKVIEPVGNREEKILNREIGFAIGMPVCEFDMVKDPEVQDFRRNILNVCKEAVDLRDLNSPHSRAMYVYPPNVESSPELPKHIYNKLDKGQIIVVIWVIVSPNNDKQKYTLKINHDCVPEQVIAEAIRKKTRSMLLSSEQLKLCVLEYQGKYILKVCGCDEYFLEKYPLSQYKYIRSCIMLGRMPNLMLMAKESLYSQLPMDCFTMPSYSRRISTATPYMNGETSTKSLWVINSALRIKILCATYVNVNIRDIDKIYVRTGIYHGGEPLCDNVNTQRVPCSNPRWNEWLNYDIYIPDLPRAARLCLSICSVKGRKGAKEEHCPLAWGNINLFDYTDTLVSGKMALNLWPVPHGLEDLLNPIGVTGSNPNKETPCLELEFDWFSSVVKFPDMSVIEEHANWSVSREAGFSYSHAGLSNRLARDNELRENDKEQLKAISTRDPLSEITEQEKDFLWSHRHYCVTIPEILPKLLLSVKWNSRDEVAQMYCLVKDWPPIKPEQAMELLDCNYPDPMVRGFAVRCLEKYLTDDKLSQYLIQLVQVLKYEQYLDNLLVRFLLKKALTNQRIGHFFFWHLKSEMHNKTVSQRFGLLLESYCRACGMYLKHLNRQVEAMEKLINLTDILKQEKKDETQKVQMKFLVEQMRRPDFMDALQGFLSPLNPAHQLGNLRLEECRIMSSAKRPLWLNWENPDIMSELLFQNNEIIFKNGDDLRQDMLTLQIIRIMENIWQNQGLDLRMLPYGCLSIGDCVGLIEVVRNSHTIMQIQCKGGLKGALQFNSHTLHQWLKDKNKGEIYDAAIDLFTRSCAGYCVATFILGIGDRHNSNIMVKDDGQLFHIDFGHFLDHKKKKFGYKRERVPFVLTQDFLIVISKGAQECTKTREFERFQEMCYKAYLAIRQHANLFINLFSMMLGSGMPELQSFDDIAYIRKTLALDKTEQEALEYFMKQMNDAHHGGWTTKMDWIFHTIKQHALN
PI3Kα, sequence (P27986 whole entry partner): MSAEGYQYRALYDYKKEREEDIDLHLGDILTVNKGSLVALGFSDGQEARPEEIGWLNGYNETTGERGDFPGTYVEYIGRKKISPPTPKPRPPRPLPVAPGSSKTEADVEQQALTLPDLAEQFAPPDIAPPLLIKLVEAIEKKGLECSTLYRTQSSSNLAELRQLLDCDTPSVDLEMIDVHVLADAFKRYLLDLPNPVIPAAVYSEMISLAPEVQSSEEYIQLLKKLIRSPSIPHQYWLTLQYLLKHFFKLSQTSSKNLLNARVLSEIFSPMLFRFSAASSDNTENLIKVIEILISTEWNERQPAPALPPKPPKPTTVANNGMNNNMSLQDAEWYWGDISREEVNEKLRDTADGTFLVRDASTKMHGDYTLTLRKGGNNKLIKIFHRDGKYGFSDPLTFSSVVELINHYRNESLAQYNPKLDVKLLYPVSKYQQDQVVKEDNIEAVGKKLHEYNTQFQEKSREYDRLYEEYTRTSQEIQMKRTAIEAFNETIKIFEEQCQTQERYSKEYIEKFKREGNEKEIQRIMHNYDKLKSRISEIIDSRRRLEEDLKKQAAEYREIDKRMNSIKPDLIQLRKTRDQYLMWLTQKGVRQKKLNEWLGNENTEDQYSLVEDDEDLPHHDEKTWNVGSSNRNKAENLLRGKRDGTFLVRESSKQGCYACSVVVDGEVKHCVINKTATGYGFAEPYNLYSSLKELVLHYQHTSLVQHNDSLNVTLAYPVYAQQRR

Structure (SMILES) | IC50 [1] [nM] | IC50 [2] [nM]
Cc1nc2ccc(-c3ccc4c(c3)CN(C(=O)N3CCCCC3c3ccccc3)CCO4)cc2[nH]1 (stereo not drawn) [Compound 96, 7-(2-methyl-1H-benzimidazol-6-yl)-4-[(2-phenylpiperidin-1-yl)carbonyl]-2,3,4,5-tetrahydro-1,4-benzoxazepine] | 75 to 200 | ≤ 50
Cc1nc2ccc(-c3ccc4c(c3)CN(C(=O)N3CCC(c5ccccc5)C3)CCO4)cc2[nH]1 (stereo not drawn) [Compound 98, 7-(2-methyl-1H-benzimidazol-6-yl)-4-[(3-phenylpyrrolidin-1-yl)carbonyl]-2,3,4,5-tetrahydro-1,4-benzoxazepine] | 500 to 1000 | 50 to 250
Cc1nc2ccc(-c3ccc4c(c3)CN(C(=O)N3CCCC3C)CCO4)cc2[nH]1 (stereo not drawn) [Compound 99, 7-(2-methyl-1H-benzimidazol-6-yl)-4-[(2-methylpyrrolidin-1-yl)carbonyl]-2,3,4,5-tetrahydro-1,4-benzoxazepine] | 500 to 1000 | 700 to 2600
Cc1nc2ccc(-c3ccc4c(c3)CN(C(=O)N3CCC(S(C)(=O)=O)CC3)CCO4)cc2[nH]1 [Compound 102, 7-(2-methyl-1H-benzimidazol-6-yl)-4-{[4-(methylsulfonyl)piperidin-1-yl]carbonyl}-2,3,4,5-tetrahydro-1,4-benzoxazepine] | 500 to 1000 | 50 to 250
Cc1nc2ccc(-c3ccc4c(c3)CN(C(=O)N3CC5CCC3C5)CCO4)cc2[nH]1 (stereo not drawn) [Compound 107, 4-(2-azabicyclo[2.2.1]hept-2-ylcarbonyl)-7-(2-methyl-1H-benzimidazol-6-yl)-2,3,4,5-tetrahydro-1,4-benzoxazepine] | 500 to 1000 | 250 to 700
Cc1nc2ccc(-c3ccc4c(c3)CN(C(=O)N3CCCC(O)C3)CCO4)cc2[nH]1 (stereo not drawn) [Compound 108, 1-{[7-(2-methyl-1H-benzimidazol-6-yl)-2,3-dihydro-1,4-benzoxazepin-4(5H)-yl]carbonyl}piperidin-3-ol] | 500 to 1000 | 250 to 700
Cc1nc2ccc(-c3ccc4c(c3)CN(C(=O)N(C)[C@H](C)c3ccccc3)CCO4)cc2[nH]1 [Compound 109, N-methyl-7-(2-methyl-1H-benzimidazol-6-yl)-N-[(1R)-1-phenylethyl]-2,3-dihydro-1,4-benzoxazepine-4(5H)-carboxamide] | 75 to 200 | ≤ 50
Cc1nc2ccc(-c3ccc4c(c3)CN(C(=O)N3CC5CN(c6ccccc6)CC5C3)CCO4)cc2[nH]1 (stereo not drawn) [Compound 110, 7-(2-methyl-1H-benzimidazol-6-yl)-4-[(5-phenylhexahydropyrrolo[3,4-c]pyrrol-2(1H)-yl)carbonyl]-2,3,4,5-tetrahydro-1,4-benzoxazepine] | 200 to 500 | 250 to 700
Cc1nc2ccc(-c3ccc4c(c3)CN(C(=O)N3CCc5ccccc5C3)CCO4)cc2[nH]1 [Compound 113, 4-(3,4-dihydroisoquinolin-2(1H)-ylcarbonyl)-7-(2-methyl-1H-benzimidazol-6-yl)-2,3,4,5-tetrahydro-1,4-benzoxazepine] | 500 to 1000 | 50 to 250
Cc1nc2ccc(-c3ccc4c(c3)CN(C(=O)N3CCCCC3c3ccc(F)c(F)c3)CCO4)cc2[nH]1 (stereo not drawn) [Compound 114, 4-{[2-(3,4-difluorophenyl)piperidin-1-yl]carbonyl}-7-(2-methyl-1H-benzimidazol-6-yl)-2,3,4,5-tetrahydro-1,4-benzoxazepine] | ≤ 75 | ≤ 50
Cc1nc2ccc(-c3ccc4c(c3)CN(C(=O)N3CCCCC3c3ccc(F)c(C)c3)CCO4)cc2[nH]1 (stereo not drawn) [Compound 118, 4-{[2-(4-fluoro-3-methylphenyl)piperidin-1-yl]carbonyl}-7-(2-methyl-1H-benzimidazol-6-yl)-2,3,4,5-tetrahydro-1,4-benzoxazepine] | 75 to 200 | ≤ 50
Cc1nc2ccc(-c3ccc4c(c3)CN(C(=O)N3CCCCC3c3ccc(C(F)(F)F)cc3)CCO4)cc2[nH]1 (stereo not drawn) [Compound 120, 7-(2-methyl-1H-benzimidazol-6-yl)-4-({2-[4-(trifluoromethyl)phenyl]piperidin-1-yl}carbonyl)-2,3,4,5-tetrahydro-1,4-benzoxazepine] | 200 to 500 | ≤ 50
Cc1nc2ccc(-c3ccc4c(c3)CN(C(=O)N3CCC(=O)CC3c3ccc(F)c(F)c3)CCO4)cc2[nH]1 (stereo not drawn) [Compound 121, 2-(3,4-difluorophenyl)-1-{[7-(2-methyl-1H-benzimidazol-6-yl)-2,3-dihydro-1,4-benzoxazepin-4(5H)-yl]carbonyl}piperidin-4-one] | 75 to 200 | 50 to 250
Cc1nc2ccc(-c3ccc4c(c3)CN(C(=O)N3CCCCCC3c3ccccc3)CCO4)cc2[nH]1 (stereo not drawn) [Compound 122, 7-(2-methyl-1H-benzimidazol-5-yl)-4-[(2-phenylazepan-1-yl)carbonyl]-2,3,4,5-tetrahydro-1,4-benzoxazepine] | 500 to 1000 | 250 to 700
Cc1nc2ccc(-c3ccc4c(c3)CN(C(=O)N3CCCCC3c3ccc(C)c(F)c3)CCO4)cc2[nH]1 (stereo not drawn) [Compound 123, 4-{[2-(3-fluoro-4-methylphenyl)piperidin-1-yl]carbonyl}-7-(2-methyl-1H-benzimidazol-6-yl)-2,3,4,5-tetrahydro-1,4-benzoxazepine] | 75 to 200 | ≤ 50
Cc1nc2ccc(-c3ccc4c(c3)CN(C(=O)N3CCC(=O)CC3c3cccc(F)c3)CCO4)cc2[nH]1 (stereo not drawn) [Compound 125, 2-(3-fluorophenyl)-1-{[7-(2-methyl-1H-benzimidazol-6-yl)-2,3-dihydro-1,4-benzoxazepin-4(5H)-yl]carbonyl}piperidin-4-one] | 75 to 200 | ≤ 50
Cc1nc2ccc(-c3ccc4c(c3)CN(C(=O)N3CCCCC3c3ccc(F)c(Cl)c3)CCO4)cc2[nH]1 (stereo not drawn) [Compound 128, 4-{[2-(3-chloro-4-fluorophenyl)piperidin-1-yl]carbonyl}-7-(2-methyl-1H-benzimidazol-6-yl)-2,3,4,5-tetrahydro-1,4-benzoxazepine] | 75 to 200 | ≤ 50

Results, then the compound that gave them:

IC50 [1] [nM] | IC50 [2] [nM] | Structure (SMILES)
500 to 1000 | 250 to 700 | Cc1nc2ccc(-c3ccc4c(c3)CN(C(=O)N3CCCC(c5ccccc5)C3)CCO4)cc2[nH]1 (stereo not drawn) [Compound 97, 7-(2-methyl-1H-benzimidazol-6-yl)-4-[(3-phenylpiperidin-1-yl)carbonyl]-2,3,4,5-tetrahydro-1,4-benzoxazepine]
500 to 1000 | 250 to 700 | Cc1nc2ccc(-c3ccc4c(c3)CN(C(=O)N3CCC(Cc5ccccc5)C3)CCO4)cc2[nH]1 (stereo not drawn) [Compound 100, 7-(2-methyl-1H-benzimidazol-6-yl)-4-{[3-(phenylmethyl)pyrrolidin-1-yl]carbonyl}-2,3,4,5-tetrahydro-1,4-benzoxazepine]
1000 to 3000 | 50 to 250 | Cc1nc2ccc(-c3ccc4c(c3)CN(C(=O)N(Cc3ccccc3)C(C)C)CCO4)cc2[nH]1 [Compound 103, 7-(2-methyl-1H-benzimidazol-6-yl)-N-(1-methylethyl)-N-(phenylmethyl)-2,3-dihydro-1,4-benzoxazepine-4(5H)-carboxamide]
500 to 1000 | 50 to 250 | COC1CCN(C(=O)N2CCOc3ccc(-c4ccc5nc(C)[nH]c5c4)cc3C2)CC1 [Compound 105, 7-(2-methyl-1H-benzimidazol-6-yl)-4-{[4-(methyloxy)piperidin-1-yl]carbonyl}-2,3,4,5-tetrahydro-1,4-benzoxazepine]
1000 to 3000 | 250 to 700 | Cc1nc2ccc(-c3ccc4c(c3)CN(C(=O)N3CCCC(Cc5ccccc5)C3)CCO4)cc2[nH]1 (stereo not drawn) [Compound 106, 7-(2-methyl-1H-benzimidazol-6-yl)-4-{[3-(phenylmethyl)piperidin-1-yl]carbonyl}-2,3,4,5-tetrahydro-1,4-benzoxazepine]
75 to 200 | ≤ 50 | Cc1nc2ccc(-c3ccc4c(c3)CN(C(=O)N3CCC(=O)CC3c3ccccc3)CCO4)cc2[nH]1 (stereo not drawn) [Compound 111, 1-{[7-(2-methyl-1H-benzimidazol-6-yl)-2,3-dihydro-1,4-benzoxazepin-4(5H)-yl]carbonyl}-2-phenylpiperidin-4-one]
75 to 200 | ≤ 50 | Cc1nc2ccc(-c3ccc4c(c3)CN(C(=O)N3CCCCC3c3cc(F)cc(Cl)c3)CCO4)cc2[nH]1 (stereo not drawn) [Compound 116, 4-{[2-(3-chloro-5-fluorophenyl)piperidin-1-yl]carbonyl}-7-(2-methyl-1H-benzimidazol-6-yl)-2,3,4,5-tetrahydro-1,4-benzoxazepine]
75 to 200 | ≤ 50 | Cc1nc2ccc(-c3ccc4c(c3)CN(C(=O)N3CCCCC3c3cccc(Cl)c3)CCO4)cc2[nH]1 (stereo not drawn) [Compound 124, 4-{[2-(3-chlorophenyl)piperidin-1-yl]carbonyl}-7-(2-methyl-1H-benzimidazol-6-yl)-2,3,4,5-tetrahydro-1,4-benzoxazepine]
200 to 500 | 250 to 700 | Cc1nc2ccc(-c3ccc4c(c3)CN(C(=O)N3CCCCC3c3cccc(C(F)(F)F)c3)CCO4)cc2[nH]1 (stereo not drawn) [Compound 127, 7-(2-methyl-1H-benzimidazol-6-yl)-4-({2-[3-(trifluoromethyl)phenyl]piperidin-1-yl}carbonyl)-2,3,4,5-tetrahydro-1,4-benzoxazepine]
75 to 200 | ≤ 50 | Cc1nc2ccc(-c3ccc4c(c3)CN(C(=O)N3CCCCC3c3cc(F)c(F)c(F)c3)CCO4)cc2[nH]1 (stereo not drawn) [Compound 129, 7-(2-methyl-1H-benzimidazol-6-yl)-4-{[2-(3,4,5-trifluorophenyl)piperidin-1-yl]carbonyl}-2,3,4,5-tetrahydro-1,4-benzoxazepine]
